The values below come from patent publication EP2002836B1, “Cyclocondensed azaindoles active as kinase inhibitors” (Nerviano Medical Sciences S.r.l., priority 2007, dated 2008).

Test [1] deals with S6 ribosomal protein phosphorylation in MCF7. Put plainly: Inhibition of AKT induced S6 ribosomal protein phosphorylation in MCF7 (immunofluorescence, ArrayScan). The class given is cell-based. The note with it: Homo sapiens, MCF-7 cells, 4 hour treatment at 37°C, anti-phospho-S6 (Ser 235/236), read-out: S6 phosphorylation (Ser235/236) in MCF7-cell IC50. The protocol: MCF-7 cells (ATCC# HTB-22) were seeded in 96-well poly-lysine coated clear- and flat-bottomed black plates (Matrix Technologies Inc., Hudson, NH, USA), in E-MEM medium (MEM+ Earle's BSS + 2 mM glutamine + 0.1 mM non-essential amino acids) containing 10% of FCS at a density of 7000 cells/well, and incubated overnight at 37°C, 5% CO2, 100% relative humidity. After this incubation, cells were treated with increasing compound doses for 4 hour at 37°C. Afterwards, cells were fixed with PBS/3.7% paraformaldehyde for 15 min at room temperature, wash twice with 200 µl/well D-PBS and permeabilize with a D-PBS solution containing 0.1% Triton X-100 (Sigma-Aldrich, St. Louis, MO, USA) and 0.1 % powder Milk for 15 minutes (staining solution). […] Fluorescence images in the DAPI and Cy5™ channels were automatically acquired, stored and analysed using a Cellomics ArrayScan™ IV instrument (Cellomics, Pittsburgh, USA); the Cellomics Cytotoxicity Algorithm was used to quantify cytoplasmic fluorescence associated with phospho-S6 (Cy5™ signal parameter: "Mean Lyso Mass-pH") for each cell in 10 fields/well, and eventually expressed as a mean population value. […]

The target of another test is AKT1 (Homo sapiens, UniProt P31749). As to the kind of experiment: FABS-NMR screening (3-FABS, 19F-labelled AKTide-like substrate) on AKT-1. The note with it: 25 nM protein, 30 µM substrate, 1.5 mM ATP; read-out: AKT1 IC50 (µM) FABS NMR assay. Also on record: The active human Ser-Thr protein kinase AKT-1 Full Length was expressed as GST fusion protein; GST (cleaved yes); made in house; host or cells: insect cells. The class given is biochemical. The protocol: The biochemical functional NMR screening on the proteins kinase AKT-1 and PKA was performed using the 3-FABS (3-Fluorine Atoms for Biochemical Screening) technique developed by C. Dalvit and the NMR group in house (C. Dalvit et al 2003 J. Am. Chem. Soc. 125 (47): 14620).
The method require the use of a ^19F-labelled substrate. The same commercial peptide was used as substrate in both enzymatic reaction: the Tyr just before the phosphorilation site in the AKTide peptide was mutated in a 3-tryfluormethyl-Phe by Bachem.
The AKTide like peptide sequence is reported below: • H-Ala-Arg-Lys-Arg-Glu-Arg-Ala-F(3-CF3)-Ser-Phe-Gly-His-His-Ala-OH
The active human Ser-Thr protein kinase AKT-1 Full Length was expressed as GST fusion protein in insect cells and then the GST was cleaved with PreScission protease. The active cycled AMP-dependent human protein kinase A PKA was expressed as polyHis-tag protein in E.Coli and purified by affinity column.
Reactions were performed in an end point format in eppendorf of 0.5 ml using the buffer solution 50mM Tris, pH 7.5, 5mM MgCl2, 1mM DTT, 8% D2O and 0.001% Triton-X-100; the final volume was of 560 µl. The substrate and protein concentration were of 30 µM and 25 nM respectively. The reactions were performed using an ATP concentration of about 9 times its KM: 150 µM in the test with PKA and 1.5 mM in the AKT-1 experiments. A sample in absence of inhibitor was run as control in order to follow the ongoing of the reaction and it represents the 0% inhibition. Different concentration compound stock solutions in DMSOd6 were made in order to add the same amount of DMSOd6 in each sample: usually the compounds stock were of 0.03, 0.2, 2, and 10 mM. 0.56 µl of these solution was added in each sample in order to reach the final compounds concentration of 30 nM, 200 nM 2 µM and 10 µM respectively; 0.56 µl of DMSOd6 was added in the control too. The reactions were quenched after about 100/120 minutes with 10 mM of Staurosporine (Sigma code:S4400), transferred into the 5 mm NMR tube (Cortec code: NE-MP5-8) and put onto the Sample Management System (SMS) autosampler for automatic data collection. The spectra were recorded using the Varian Inova 600 MHz NMR spectrometer operating at a ^19F Larmor frequency of 564 MHz and using a 5mm probe with the inner coil tuned to ^19F and the outer coil tuned to H. The data were recorded without proton decoupling with a spectral width of 12000 Hz, an acquisition time of 0.8s and a relaxation delay of 2.8s. Chemical shifts are referenced to trifluoroacetic acid.
IC50 determination was achieved by measuring the substrate signal as a function of the inhibitor concentration using one of the formulas below. […] IC50 data were analyzed with non-linear least squares methods in the Origin 5.0 software package.

AKT1, sequence (P31749 whole entry, the tested form may be a part): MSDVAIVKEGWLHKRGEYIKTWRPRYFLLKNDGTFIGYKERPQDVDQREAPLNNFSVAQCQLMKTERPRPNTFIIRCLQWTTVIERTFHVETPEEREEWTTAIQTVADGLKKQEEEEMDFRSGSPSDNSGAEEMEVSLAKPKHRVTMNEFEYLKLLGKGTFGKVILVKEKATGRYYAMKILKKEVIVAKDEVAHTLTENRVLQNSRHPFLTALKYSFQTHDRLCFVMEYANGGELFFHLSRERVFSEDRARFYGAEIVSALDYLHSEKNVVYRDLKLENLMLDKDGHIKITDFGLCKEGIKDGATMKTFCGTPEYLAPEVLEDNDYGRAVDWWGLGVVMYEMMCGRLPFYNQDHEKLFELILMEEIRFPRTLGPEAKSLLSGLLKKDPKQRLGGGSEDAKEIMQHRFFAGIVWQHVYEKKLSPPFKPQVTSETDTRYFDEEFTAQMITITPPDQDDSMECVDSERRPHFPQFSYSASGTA

`NC[C@H](Cc1ccccc1)NC(=O)C1=Cc2c[nH]c3nccc(c23)CC1` [Cpd. 1, N-[(1S)-2-amino-1-benzylethyl]-6,7-dihydro-2H-2,3-diazabenzo[cd]azulene-8-carboxamide]: the IC50 in test [1] was found to be 13500 nM; on AKT1 it was 0.15 µM.

For the compound `O=C(N[C@H](CN1CCCC1)c1ccccc1)C1=Cc2c[nH]c3nccc(c23)CC1` [Cpd. 6, N-[(1S)-1-phenyl-2-pyrrolidin-1-ylethyl]-6,7-dihydro-2H-2,3-diazabenzo[cd]azulene-8-carboxamide], the IC50 in test [1] was found to be 11500 nM; at AKT1, 0.315 µM. Take `CC(=O)N1CC(C(=O)N[C@H](CN)Cc2ccccc2)=Cc2c[nH]c3nccc1c23` [Cpd. 3, 6-acetyl-N-[(1S)-2-amino-1-benzylethyl]-6,7-dihydro-2H-2,3,6-triazabenzo[cd]azulene-8-carboxamide]: the IC50 at AKT1 came to 0.76 µM. Regarding `NC[C@H](Cc1ccccc1)NC(=O)C1=Cc2c[nH]c3nccc(c23)NC1` [compound 2, N-[(1S)-2-amino-1-benzylethyl]-6,7-dihydro-2H-2,3,6-triazabenzo[cd]azulene-8-carboxamide], at AKT1, the IC50 was determined as 0.03 µM.
